Source: PubChem BioAssay (NCI)
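Five compound concentrations were applied to cells in 96-well plates for 48 hours; endpoints were derived by simple linear interpolation of the resulting dose-response curve. TGI: total growth inhibition.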

Assays:
Test in all cases: inhibition of tumour cell growth, NCI panel, 48 h
786-0 renal = system: 786-0 renal
A498 renal = system: A498 renal
A549 NSCLC = system: A549 NSCLC
ACHN renal = system: ACHN renal
CAKI-1 renal = system: CAKI-1 renal
CCRF-CEM leukemia = system: CCRF-CEM leukemia
DLD-1 colon = system: DLD-1 colon
DMS 114 small cell lung = system: DMS 114 small cell lung
DMS 273 small cell lung = system: DMS 273 small cell lung
EKVX NSCLC = system: EKVX NSCLC
HCC-2998 colon = system: HCC-2998 colon
HCT-116 colon = system: HCT-116 colon
HCT-15 colon = system: HCT-15 colon
HL-60(TB) leukemia = system: HL-60(TB) leukemia
HOP-92 NSCLC = system: HOP-92 NSCLC
HT29 colon = system: HT29 colon
IGROV1 ovarian = system: IGROV1 ovarian
K-562 leukemia = system: K-562 leukemia
KM20L2 colon = system: KM20L2 colon
LOX IMVI melanoma = system: LOX IMVI melanoma
LXFL 529 NSCLC = system: LXFL 529 NSCLC
M14 melanoma = system: M14 melanoma
MALME-3M melanoma = system: MALME-3M melanoma
MOLT-4 leukemia = system: MOLT-4 leukemia
NCI-H226 lung = system: NCI-H226 lung
NCI-H23 lung = system: NCI-H23 lung
NCI-H460 lung = system: NCI-H460 lung
NCI-H522 lung = system: NCI-H522 lung
OVCAR-3 ovarian = system: OVCAR-3 ovarian
OVCAR-4 ovarian = system: OVCAR-4 ovarian
OVCAR-5 ovarian = system: OVCAR-5 ovarian
OVCAR-8 ovarian = system: OVCAR-8 ovarian
RPMI-8226 leukemia = system: RPMI-8226 leukemia
RXF 393 renal = system: RXF 393 renal
SF-268 CNS = system: SF-268 CNS
SF-295 CNS = system: SF-295 CNS
SF-539 CNS = system: SF-539 CNS
SK-MEL-2 melanoma = system: SK-MEL-2 melanoma
SK-MEL-28 melanoma = system: SK-MEL-28 melanoma
SK-MEL-5 melanoma = system: SK-MEL-5 melanoma
SN12C renal = system: SN12C renal
SNB-19 CNS = system: SNB-19 CNS
SNB-75 CNS = system: SNB-75 CNS
SNB-78 CNS = system: SNB-78 CNS
SR leukemia = system: SR leukemia
SW-620 colon = system: SW-620 colon
TK-10 renal = system: TK-10 renal
U251 CNS = system: U251 CNS
UACC-257 melanoma = system: UACC-257 melanoma
UACC-62 melanoma = system: UACC-62 melanoma
UO-31 renal = system: UO-31 renal
XF 498 CNS = system: XF 498 CNS

Cc1ccc(NC(=O)CC2C(=O)Nc3ccccc3S2(=O)=O)c(C)c1 (configuration not stated)
TGI (786-0 renal): 40.3 µM
TGI (A498 renal): 31.2 µM
TGI (A549 NSCLC): 36.8 µM
TGI (ACHN renal): 39.1 µM
TGI (CAKI-1 renal): 35.9 µM
TGI (CCRF-CEM leukemia): 43.2 µM
TGI (DLD-1 colon): 43.1 µM
TGI (DMS 114 small cell lung): 39.2 µM
TGI (DMS 273 small cell lung): 25.8 µM
TGI (EKVX NSCLC): > 100 µM
TGI (HCC-2998 colon): 30.5 µM
TGI (HCT-116 colon): 24.9 µM
TGI (HCT-15 colon): 30.3 µM
TGI (HL-60(TB) leukemia): 14 µM
TGI (HOP-92 NSCLC): 31 µM
TGI (HT29 colon): 27.2 µM
TGI (IGROV1 ovarian): 28.8 µM
TGI (K-562 leukemia): 29 µM
TGI (KM20L2 colon): 26.9 µM
TGI (LOX IMVI melanoma): 29 µM
TGI (LXFL 529 NSCLC): 41 µM
TGI (M14 melanoma): 26.2 µM
TGI (MALME-3M melanoma): 45.9 µM
TGI (MOLT-4 leukemia): 28.7 µM
TGI (NCI-H226 lung): 35.9 µM
TGI (NCI-H23 lung): 37.2 µM
TGI (NCI-H460 lung): 33.8 µM
TGI (NCI-H522 lung): 23.6 µM
TGI (OVCAR-3 ovarian): 30.1 µM
TGI (OVCAR-4 ovarian): 41.2 µM
TGI (OVCAR-5 ovarian): 46.9 µM
TGI (OVCAR-8 ovarian): 34.6 µM
TGI (RPMI-8226 leukemia): 43.4 µM
TGI (RXF 393 renal): 41 µM
TGI (SF-268 CNS): 39.6 µM
TGI (SF-295 CNS): 50.2 µM
TGI (SF-539 CNS): 30.8 µM
TGI (SK-MEL-2 melanoma): 73.8 µM
TGI (SK-MEL-28 melanoma): 41.1 µM
TGI (SK-MEL-5 melanoma): 19.5 µM
TGI (SN12C renal): 39.3 µM
TGI (SNB-19 CNS): 32.6 µM
TGI (SNB-75 CNS): 38.6 µM
TGI (SNB-78 CNS): 56 µM
TGI (SR leukemia): 19.1 µM
TGI (SW-620 colon): 19.5 µM
TGI (TK-10 renal): 55 µM
TGI (U251 CNS): 25.8 µM
TGI (UACC-257 melanoma): 55 µM
TGI (UACC-62 melanoma): 50.5 µM
TGI (UO-31 renal): 39.8 µM
TGI (XF 498 CNS): 34.8 µM
